What was measured:
[1] = Stability in human cryopreserved hepatocytes without and with cimetidine or thiabendazole (Example 6); conditions: human, substrate 1 μM; for half-life at 1 μM: t½
[2] = Stability in human liver microsomes without and with cimetidine or furafylline (Example 4); assay type: in vitro ADME; conditions: human liver microsomes, largest effect over concentrations tested
Method: A minus cofactor control incubation was included for each compound tested where 0.1 M phosphate buffer pH 7.4 was added instead of NADPH (minus NADPH). […] The samples were analysed for mebendazole or phenacetin using LC-MS/MS.
A minus cofactor control incubation was included for each compound tested where 0.1 M phosphate buffer pH 7.4 was added instead of cofactor (minus NADPH). […] The samples were analysed for mebendazole or phenacetin using LC-MS/MS.

[3] = system: human cryopreserved hepatocytes; assay: Stability in human cryopreserved hepatocytes without and with cimetidine or furafylline (Example 5); assay type: in vitro ADME; conditions: human hepatocytes, largest effect over concentrations tested
Method: The final incubation volume was 500 μL. Two control compounds were included with each species, alongside appropriate vehicle control.
The samples were analysed for mebendazole or ethoxycoumarin using LC-MS/MS.
The final incubation volume was 500 μL.
A positive control compound, ethoxycoumarin, for CYP1A2 was included. […] The samples were analysed for mebendazole or ethoxycoumarin using LC-MS/MS.

[4] = cryopreserved hepatocytes (suspension), no inhibitor

hepatocyte CLint at 1 µM [1, 4] [µL/min/1e6 cells]	half-life at 1 μM [1, 4] [min]	hepatocyte CLint at 1 µM ([1]; cryopreserved hepatocytes (suspension), with cimetidine 30 µM, cimetidine 30 μM) [µL/min/1e6 cells]	hepatocyte CLint at 1 µM ([1]; cryopreserved hepatocytes (suspension), with cimetidine 100 µM, cimetidine 100 μM) [µL/min/1e6 cells]	hepatocyte CLint at 1 µM ([1]; cryopreserved hepatocytes (suspension), with cimetidine 300 µM, cimetidine 300 μM) [µL/min/1e6 cells]	hepatocyte CLint at 1 µM ([1]; cryopreserved hepatocytes (suspension), with thiabendazole 10 µM, thiabendazole 10 μM) [µL/min/1e6 cells]	hepatocyte CLint at 1 µM ([1]; cryopreserved hepatocytes (suspension), with thiabendazole 30 µM, thiabendazole 30 μM) [µL/min/1e6 cells]	hepatocyte CLint at 1 µM ([1]; cryopreserved hepatocytes (suspension), with thiabendazole 100 µM, thiabendazole 100 μM) [µL/min/1e6 cells]	half-life at 1 μM ([1]; cryopreserved hepatocytes, with cimetidine 30 μM, cimetidine 30 μM) [min]	half-life at 1 μM ([1]; cryopreserved hepatocytes, with cimetidine 100 μM, cimetidine 100 μM) [min]	half-life at 1 μM ([1]; cryopreserved hepatocytes, with cimetidine 300 μM, cimetidine 300 μM) [min]	half-life at 1 μM ([1]; cryopreserved hepatocytes, with thiabendazole 10 μM, thiabendazole 10 μM) [min]	half-life at 1 μM ([1]; cryopreserved hepatocytes, with thiabendazole 30 μM, thiabendazole 30 μM) [min]	half-life at 1 μM ([1]; cryopreserved hepatocytes, with thiabendazole 100 μM, thiabendazole 100 μM) [min]	inhibition of intrinsic clearance of mebendazole [2] [%]	decrease of mebendazole metabolism in presence of the inhibitor [3] [fold]	inhibition of intrinsic clearance of mebendazole [3] [%]	SMILES
105	13.2	99.9	88.8	59.8	8.65	5.35	4.05	13.9	15.6	23.2	160	259	343	–	–	–	CCOc1ccc2ccc(=O)oc2c1
–	–	–	–	–	–	–	–	–	–	–	–	–	–	99	9.1	89	Cc1nc2c([nH]1)c(=O)n(C)c(=O)n2Cc1ccco1 [Furafylline]
